The text below walks through data of PubChem BioAssay (NCI).

Some test systems named below: HCT-116 colon; SNB-75 CNS; RPMI-8226 leukemia; HOP-92 NSCLC; SF-268 CNS; OVCAR-3 ovarian; M14 melanoma; HOP-62 NSCLC; NCI-H226 lung; NCI-H522 lung; CCRF-CEM leukemia.
Holding throughout (test): DTP human tumour cell line panel, 48 h

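Protocol summary: plate cells (96-well), add compound at 5 concentrations, incubate 48 h, interpolate endpoints linearly. At the GI50, growth is halved. The concentration for full growth arrest is given as TGI.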 Where a SMILES comes first, the peptide text is derived from it.

As to `O=[N+]([O-])c1cccc([N+](=O)[O-])c1Cl`, the TGI with HCT-116 colon was above 100 µM; with SNB-75 CNS, 67.5 µM; with RPMI-8226 leukemia, above 100 µM; in the assay with HOP-92 NSCLC, 45.3 µM; in the assay with SF-268 CNS, 46.5 µM; in the assay on OVCAR-3 ovarian, 4.84 µM. The TGI with M14 melanoma is above 100 µM; with HOP-62 NSCLC it was above 100 µM; in the assay on NCI-H226 lung, 68.4 µM; with NCI-H522 lung, 29.5 µM.
In the case of `CC(=O)Nc1nc(C)c(S(=O)(=O)NC(=O)N2c3ccccc3CCc3ccccc32)s1`, the concentration for total growth inhibition (TGI) with HCT-116 colon, in the assay with CCRF-CEM leukemia, with SNB-75 CNS, in the assay on RPMI-8226 leukemia, in the assay on HOP-92 NSCLC and in the assay on SF-268 CNS was above 100 µM in each case. For the same compound, the TGI in the assay with OVCAR-3 ovarian, in the assay on M14 melanoma, in the assay with HOP-62 NSCLC and in the assay with NCI-H522 lung was above 100 µM in each case.
Take `CCC(C)C(NC(=O)C1CCCN1)C(=O)NC(C(=O)NCC(=O)NC(CC(N)=O)C(=O)NC(CC(C)C)C(=O)NC(CC(C)C)C(=O)NC(CCCCN)C(N)=O)C(C)C` (stereo unspecified) (H-PIVGNLLK-NH2; configuration not given here): the TGI in the assay on HCT-116 colon, in the assay with CCRF-CEM leukemia, in the assay on RPMI-8226 leukemia, in the assay with HOP-92 NSCLC, in the assay on SF-268 CNS and with OVCAR-3 ovarian was above 75 µM in each case. The TGI with M14 melanoma, in the assay on HOP-62 NSCLC, in the assay with NCI-H226 lung and in the assay with NCI-H522 lung was above 75 µM throughout.
Regarding `Cc1ccc(C(=O)NN=C(/N=N/c2cccc(C)c2)c2ccc(N(C)C)cc2)cc1`, the TGI with HCT-116 colon, in the assay on CCRF-CEM leukemia, with RPMI-8226 leukemia, in the assay with HOP-92 NSCLC, in the assay on SF-268 CNS and in the assay with OVCAR-3 ovarian was above 100 µM throughout. In addition, the TGI in the assay with M14 melanoma, in the assay on NCI-H226 lung and in the assay on NCI-H522 lung was above 100 µM each time.
Regarding `OCC1c2ccccc2-n2nc(-c3ccccc3)c(O)c21` (stereo unspecified), the TGI with CCRF-CEM leukemia is above 100 µM; in the assay with SNB-75 CNS, above 100 µM; with HOP-92 NSCLC it was 35 µM; with SF-268 CNS, above 100 µM; in the assay on OVCAR-3 ovarian it was 79.2 µM; with HOP-62 NSCLC it was above 100 µM. Further, the TGI is above 100 µM in the assay with NCI-H226 lung and 48.7 µM in the assay on NCI-H522 lung.
Consider `O=C1/C(=C/c2cccs2)N=C(c2ccccc2)N1c1nc2ccccc2s1`, for which the TGI was above 100 µM in the assay on HCT-116 colon; 0.976 µM in the assay on CCRF-CEM leukemia; 52.2 µM in the assay with RPMI-8226 leukemia; above 100 µM in the assay on HOP-92 NSCLC; 29.8 µM with SF-268 CNS; above 100 µM in the assay with OVCAR-3 ovarian. Further, the TGI with M14 melanoma is above 100 µM; in the assay on HOP-62 NSCLC, above 100 µM; in the assay with NCI-H226 lung, above 100 µM; in the assay on NCI-H522 lung, 17.3 µM.
As for `O=c1oc2ccccc2c(O)c1C(c1ccc(O)cc1)c1c(O)c2ccccc2oc1=O`, the total growth inhibition concentration (TGI) in the assay on HCT-116 colon was above 100 µM; in the assay on CCRF-CEM leukemia, above 100 µM; with SNB-75 CNS, 97.8 µM; with HOP-92 NSCLC, above 100 µM; in the assay on SF-268 CNS, 67.2 µM; in the assay on OVCAR-3 ovarian, above 100 µM. Further, the TGI is above 100 µM in the assay with HOP-62 NSCLC, above 100 µM with NCI-H226 lung and 62.8 µM in the assay with NCI-H522 lung.
Consider `Cn1c(O)c(/C=N/c2ncccn2)c(=O)[nH]c1=O`, for which the TGI in the assay with HCT-116 colon, in the assay with SNB-75 CNS, in the assay with HOP-92 NSCLC, in the assay with SF-268 CNS, in the assay with OVCAR-3 ovarian and in the assay with M14 melanoma was above 100 µM in each case. Besides, the TGI with HOP-62 NSCLC, in the assay with NCI-H226 lung and in the assay on NCI-H522 lung was above 100 µM throughout.
For the compound `COc1c(-c2ccc(F)cc2)oc2cc(O)cc(O)c2c1=O`, the TGI was above 100 µM in the assay on HCT-116 colon; 95.3 µM in the assay on CCRF-CEM leukemia; 64 µM in the assay on SNB-75 CNS; above 100 µM with RPMI-8226 leukemia; above 100 µM with HOP-92 NSCLC; above 100 µM with SF-268 CNS. The TGI in the assay on OVCAR-3 ovarian is above 100 µM; in the assay on M14 melanoma, above 100 µM; with HOP-62 NSCLC it was 38.4 µM; in the assay on NCI-H522 lung, 44.2 µM.
Consider `COc1ccc(-c2cc(-c3ccc(OC)c(OC)c3)nc(SCCCC(=O)NO)n2)cc1`, for which the GI50 is 0.96 µM with HCT-116 colon; 1.36 µM with CCRF-CEM leukemia; 1.34 µM with SNB-75 CNS; 0.752 µM in the assay on RPMI-8226 leukemia; 1.5 µM in the assay on HOP-92 NSCLC; 1.97 µM in the assay with SF-268 CNS. In addition, the GI50 with OVCAR-3 ovarian was 1.69 µM; with HOP-62 NSCLC, 1.47 µM; in the assay with NCI-H522 lung, 0.787 µM. For the same compound, the TGI with HCT-116 colon is 13.7 µM; with CCRF-CEM leukemia, above 100 µM; in the assay on SNB-75 CNS it was 5.6 µM; in the assay with RPMI-8226 leukemia, 6.21 µM; in the assay with HOP-92 NSCLC it was 5.63 µM; with SF-268 CNS, 5.45 µM. In addition, the TGI came to 5.46 µM in the assay with OVCAR-3 ovarian, 6.47 µM in the assay with HOP-62 NSCLC and 5.09 µM in the assay on NCI-H522 lung.
On to `S=c1oc(CCCCCCCCc2nn(CNc3ccc(Cl)cc3)c(=S)o2)nn1CNc1ccc(Cl)cc1`, for which the TGI in the assay with HCT-116 colon, in the assay with SNB-75 CNS, in the assay with RPMI-8226 leukemia, in the assay on HOP-92 NSCLC, in the assay with SF-268 CNS and in the assay on M14 melanoma was above 100 µM each time. Also, the values for the TGI in the assay on HOP-62 NSCLC, with NCI-H226 lung and in the assay with NCI-H522 lung were 76.1 µM, above 100 µM and above 100 µM, respectively.
For `C=C(C)[C@@H]1CC[C@]2(C(=O)OC3OC(COC4OC(CO)C(OC5OC(C)C(O)C(O)C5O)C(O)C4O)C(O)C(O)C3O)CC[C@]3(C)[C@H](CC[C@@H]4[C@@]5(C)CC[C@H](O)[C@@](C)(CO)[C@@H]5CC[C@]43C)[C@@H]12` (stereo partly specified), the TGI with HCT-116 colon is above 6.75 µM; with SNB-75 CNS, above 10 µM; with RPMI-8226 leukemia, above 5.92 µM; in the assay with HOP-92 NSCLC, above 6.7 µM; in the assay with SF-268 CNS, 9.89 µM; in the assay with OVCAR-3 ovarian, 5.16 µM. For the same compound, the TGI in the assay on M14 melanoma is above 10 µM; in the assay with HOP-62 NSCLC, above 10 µM; in the assay on NCI-H226 lung it was above 10 µM; with NCI-H522 lung it was 9.56 µM.
In the case of `CC(C)(C)C(=O)O[C@H]1C=C[C@@H](O)[C@@H]2[C@H]1[C@@H]1C=C[C@H]2C1`, the TGI in the assay with HCT-116 colon was above 100 µM; in the assay with CCRF-CEM leukemia it was above 100 µM; in the assay with SNB-75 CNS, above 100 µM; in the assay on RPMI-8226 leukemia it was 83 µM; in the assay on HOP-92 NSCLC, above 100 µM; in the assay with SF-268 CNS, above 100 µM. The TGI is above 100 µM in the assay with OVCAR-3 ovarian, above 100 µM with M14 melanoma and 79.8 µM in the assay on NCI-H522 lung.
